According to patent US11999702B1, “4,5-bis(4-chlorophenyl)-1-hexyl-2-(3,4-dimethoxyphenyl)-1H-imidazole as an antimicrobial compound” (KING FAISAL UNIVERSITY, priority 2023, dated 2024):

What was measured:
Type in all cases: cell-based
Details in all cases: after 10, 20, 40 and 60 minutes at all dilutions 1:100, 1:200, 1:400, 1:800
[1] = system: Staphylococcus aureus; assay: Antimicrobial testing by agar dilution, Staphylococcus aureus
Protocol: (§1) The antimicrobial properties of the 4,5-bis(4-chlorophenyl)-1-hexyl-2-(3,4-dimethoxyphenyl)-1H-imidazole (5) were studied by the method of agar dilution. Test solutions of each compound were prepared in concentration of 1% using dimethylformamide as a solvent then they are diluted in physiological solution to obtain the final experimental dilutions 1:100, 1:200, 1:400, 1:800. The effect of these substances were compared with furacillin in a controllable study. The testing microbes used were gram positive bacteria Staphylococcus aureus, gram negative bacteria Escherichia coli, Pseudomonas aeruginosa and Candida albicans fungi were taken. The experiments used for this survey were meat-pentonlu agar (EPA) for cultivation of bacteria and Saburo environment for fungi. Each experiment used 1 ml of test solution on each plate 500 min. Add 2 drops of emulsified with microbes feel. All experimental samples were taken from the agar after 10, 20, 40, 60 minutes in the environment on the basis of Patrk planted. Bacteria were cultivated at a temperature of 37° C. for 1 day and the mushroom was kept in a thermostat for […] at a temperature of 28° C. in the. Then results were checked.

[2] = system: Escherichia coli; assay: Antimicrobial testing by agar dilution, Escherichia coli
Protocol: as §1

[3] = system: Pseudomonas aeruginosa; assay: Antimicrobial testing by agar dilution, Pseudomonas aeruginosa
Protocol: as §1

[4] = system: Candida albicans; assay: Antimicrobial testing by agar dilution, Candida albicans
Protocol: as §1

Measured: inhibition activity

CCCCCCn1c(-c2ccc(OC)c(OC)c2)nc(-c2ccc(Cl)cc2)c1-c1ccc(Cl)cc1 [4,5-bis(4-chlorophenyl)-1-hexyl-2-(3,4-dimethoxyphenyl)-1H-imidazole]
highest inhibition activity: all assays above
